Reference: patent publication US6716442B2, “Process and means for the eradication of fleas in the habitats of small mammals” (Merial, priority 1997, dated 2004)
Where two headings read alike, the source gives them in different places.

Assays:
[1] = system: fleas (Ctenocephalides felis); experiment: Eradication of fleas in enclosures of infested dogs treated monthly with a spot-on solution; type: in vivo; details: group C, 10% fipronil cutaneous point solution on days 0, 28, 56, 84, weekly egg counts, body and comb counts over weeks 1-12, regularly reinfested
Source text: The test used dogs in good health.
The dogs were divided by groups of three dogs into enclosures of area approximately 4.80 m long (16 feet) and 1.5 m wide (5 feet) each containing a shelter and soil especially favourable to the development of the immature stages of the fleas (Ctenocephalides felis).
A total of 18 dogs, that is to say six enclosures, was allocated to the control group A.
A group C of six dogs (2 enclosures) preinfested in this way received the treatment according to the invention by application of a cutaneous point solution having a concentration of 10% of fipronil.
The doses of concentrated composition for local cutaneous application of fipronil were as follows:
The animals of group C were treated on day 0 and then every 28 days, that is to say the days 28, 56 and 84.

fleas [2] = experiment: Similar flea eradication test on cats; type: in vivo; details: same results as dogs
fleas [3] = details: dogs; concentrated solution for point application (spot on); cited from earlier work
fleas [4] = details: cats; concentrated solution for point application (spot on); cited from earlier work

N#Cc1nn(-c2c(Cl)cc(C(F)(F)F)cc2Cl)c(N)c1[S+]([O-])C(F)(F)F (stereo not shown) [fipronil, 1-[2,6-Cl2-4-CF3-phenyl]-3-CN-4-[SO—CF3]-5-NH2-pyrazole]
rate of control of the infestation [1]: 100% | reinfestation (fleas [2]): total absence of reinfestation | period of anti-flea efficacy (fleas [3]): 2 to 3 months | period of anti-flea efficacy (fleas [4]): six
